Experiments:
WEHI7.2 cells = assay: anti-CD3-induced Ca2+ elevation by digital imaging; format: cell-based; conditions: 60 μM peptide with Chariot reagent
Experimental: (§1) FIGS. 6A-D illustrates peptide 2 (SEQ ID NO:3) Reverses Bcl-2's Inhibition of Anti-CD3-Induced Ca^2+Elevation. (A) Representative Ca^2+ traces (each the mean of ˜65 cells) recording anti-CD3 (arrow, time of addition)-induced Ca^2+ elevation in Bcl-2(+) WEHI7.2 cells. Peptide (60 μM) uptake was facilitated by Chariot reagent. (B) Peak anti-CD3 induced Ca^2+ elevation in Bcl-2(−) and Bcl-2(+) WEHI7.2 cells treated with peptides as in (A) [mean±SEM, five experiments for Bcl-2(−) and seven experiments for Bcl-2(+) cells, with mean 68 cells per sample per experiment]. (C) Representative Ca^2+ traces in Jurkat cells (mean 85 cells each). Treatment conditions are the same as in (A), except that a control involving addition of peptide 2 without Chariot reagent has been added. (D) Peak anti-CD3-induced Ca^2+ elevation in Jurkat cells treated with peptides as in (C) (mean±SEM, seven experiments, mean 81 cells per sample per experiment).
(§2) Next we investigated whether peptide 2 also reverses Bcl-2's inhibitory effect on Ca^2+ release through the IP3R in Bcl-2(+) and (−) WEHI7.2 clones, newly derived WEHI7.2 mixed populations exogenously expressing Bcl-2, and Jurkat cells. Optimal conditions for peptide delivery and anti-CD3 concentration were determined in preliminary experiments. Peptide delivery in the lipid bilayer is 100%, whereas the penetration of peptide 2 into cells is much less, accounting for the lesser effect in cells. Therefore, a higher concentration of peptide (60 μM) was delivered into cells using the Chariot delivery reagent. Cytoplasmic Ca^2+ concentration was continuously measured at a single-cell level by digital imaging during anti-CD3 treatment. Representative Ca^2+ traces from Bcl-2(+) WEHI7.2 cells are shown in FIG. 6A, and the average Ca^2+ elevation induced by anti-CD3 in seven experiments is summarized in FIG. 6B. Observed variations in lag phase are at least partially attributable to the fact that lymphocytes are only loosely adherent to coverslips and thus rapid buffer exchange is not possible during antibody additions. Peptide 2 enhanced anti-CD3-induced Ca^2+ elevation in Bcl-2(+) WEHI7.2 cells by 40%. […] Peptide 2 had no effect on Ca^2+ elevation when added to the cells in the absence of the Chariot reagent. […] The low Bcl-2 level in Jurkat cells and the barely detectable endogenous Bcl-2 in Bcl-2(−) WEHI7.2 cells are consistent with the higher amplitude and longer duration of the Ca^2+ response in these cells in contrast to Bcl-2(+) WEHI7.2 cells (compare FIGS. 6A and 6B to FIGS. 6C and 6D). Thus, peptide 2 modulated anti-CD3-induced Ca^2+ elevation in both Bcl-2(+) WEHI7.2 cells and Jurkat cells, consistent with the ability of peptide 2 to disrupt Bcl-2-IP3R interaction.

Jurkat cells = assay: anti-CD3-induced Ca2+ elevation by digital imaging; format: cell-based
Experimental: as §1, §2

Bcl-2-IP3R interaction = Bcl-2-IP3R interaction (Homo sapiens, UniProt P10415); assay: GST pull-down of Bcl-2 from Bcl-2(+) WEHI7.2 extracts with GST-IP3R domain 3; format: binding, mouse; parameters: expressed in transfected cells; host or cells: Bcl-2(+) WEHI7.2 cells (source of Bcl-2)
Text: To identify where Bcl-2 interacts on the IP3R, we used a series of GST-IP3R fusion constructs corresponding to five fragments covering the first N-terminal 2216 amino acids and 1 fragment corresponding to the last 160 amino acids of mouse IP3R type 1 (FIG. 3). These fragments are located in the cytoplasm and coincide with “natural” domains generated by limited proteolysis. The transmembrane domain was not included. After purification, fragments migrated as single prominent bands corresponding to their expected molecular weights, although some minor degradation products were detected.
The first set of GST pull-down experiments utilized extracts of Bcl-2(+) WEHI7.2 cells and Jurkat cells as two independent sources of Bcl-2. Cell extracts were incubated with GST-IP3R fragments prebound to glutathione sepharose resin, with equal loading of the GST-IP3R fragments. […] These experiments were repeated a total of five times with the same result. It is important to note that, following incubation of cell extracts with GST-IP3R fragments on the glutathione sepharose resin, the resin was washed extensively.
Since the IP3R binding region was narrowed down to the 80 amino acid subdomain 3a1 (aa 1347-1426), we designed two 20 amino acid peptides (peptide 1, aa 1365-1384 (SEQ ID NO:2); peptide 2, aa 1389-1408 (SEQ ID NO:3)) based on the degree of homology in this region among different IP3R isoforms. Also, preference was given to regions that have beta-turn and/or α-helical structures, rather than random-coil or nonstructured sequences, expecting that one or both of the peptides could inhibit the Bcl-2-IP3R interaction. Furthermore, the C-terminal region of domain 3a1 was not selected because of its lower accessibility and unpredictable secondary structure (Invitrogen PeptideSelect Design Tool). The scrambled sequence of peptide 2 was also synthesized and used as a control. […] The inhibitory effect of peptide 2 on Bcl-2-IP3R interaction was also detected in coimmunoprecipitation assays employing both Bcl-2(+) WEHI7.2 cells (FIGS. 4A and 4B) and Jurkat cells (FIG. 4C). […]

Chain of Bcl-2-IP3R interaction (P10415 whole entry, the tested form may be a part): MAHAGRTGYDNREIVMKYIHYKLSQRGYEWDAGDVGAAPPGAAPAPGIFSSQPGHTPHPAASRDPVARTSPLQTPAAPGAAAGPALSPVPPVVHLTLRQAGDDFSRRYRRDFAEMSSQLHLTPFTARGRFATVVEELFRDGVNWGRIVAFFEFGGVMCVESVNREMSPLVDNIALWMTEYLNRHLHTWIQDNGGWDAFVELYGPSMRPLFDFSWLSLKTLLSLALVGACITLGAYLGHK

With “NVYTEIKCNSLLPLDDIVRV (listed as Homo sapiens) [peptide 2, 20 amino acid peptide, aa 1389-1408 of IP3R subdomain 3a1]” the “enhancement of anti-CD3-induced Ca2+ elevation” value (shortened to “enhancement”) (WEHI7.2 cells; Bcl-2(+) WEHI7.2 cells) was 40%, the “effect on anti-CD3-induced Ca2+ elevation” value (WEHI7.2 cells; Bcl-2(−) WEHI7.2 cells) was “did not have a significant effect” and the “enhancement” value (Jurkat cells; Jurkat cells with endogenous Bcl-2 knocked down by siRNA) was “did not enhance”. For the same sequence, the “enhancement” value (Jurkat cells; Jurkat cells, 60 μM peptide with Chariot reagent) was “significantly enhanced”, the “effect on intracellular Ca2+ levels” value (Jurkat cells; absence of anti-CD3 stimulation (data not shown)) was “did not affect” and the “effect on Ca2+ elevation” value (Jurkat cells; peptide added in the absence of Chariot reagent) was “no effect”. The “amount of Bcl-2 bound to GST-IP3R domain 3” value (Bcl-2-IP3R interaction; 200 μM peptide) was “significantly decreased” and the “amount of Bcl-2 bound to GST-IP3R domain 3” value (Bcl-2-IP3R interaction; 1 mM peptide) was “significantly decreased”.

Source: patent US8445441B2, “Inhibitors of BCL-2” (Case Western Reserve University, priority 2007, dated 2013)
